PMC5556071, “ATR inhibition facilitates targeting of leukemia dependence on convergent nucleotide biosynthetic pathways” (Nature Communications, 2017)

What was measured:
CEM cells = experiment: Proliferation assay (CellTiter-Glo, 72 h); type: cell-based, human
Protocol: (§1) Cells were plated in 384-well plates (1000 cells/well for suspension cell lines and 500 cells/well for adherent cell lines in 30 µl volume). Drugs were serially diluted to the desired concentrations and an equivalent volume of DMSO was added to vehicle control. Ten microliter of the 4× diluted drugs were added to each well. Following 72 h incubation, ATP content was measured using CellTiter-Glo reagent according to manufacturer’s instructions (Promega, CellTiter-Glo Luminescent Cell Viability Assay), and analyzed by SpectraMax luminometer (Molecular Devices). IC50 values, concentrations required to inhibit proliferation by 50% compared to DMSO treated cells, were calculated using Prism 6.0 h (Graphpad Software).

[1] = tested on: p185BCR-ABL Arf–/– pre-B-ALL; experiment: Systemic primary pre-B-ALL leukemia model, survival, bioluminescence, body weight; type: in vivo
Protocol: For development of systemic leukemia model, C57Bl/6 female mice were injected intravenously with 50,000 firefly luciferase expressing p185^BCR-ABL Arf ^−/− pre-B-ALL cells[12], [31]. The leukemic burden was monitored using bioluminescence imaging. All drug treatments were performed in an oral formulation consisting of PEG-200, Transcutol, Labrasol and Tween-80 blended in a ratio of 5:3:1:1. The oral gavage volume was 50 µl per dose (a detailed description is available in the Supplementary Information).
All C57BL/6 female mice were purchased from the UCLA Radiation Oncology breeding colony. […] For oral administration, single agent or combination of drugs were solubilized in a formulation consisting of the following: PEG-200: Transcutol: Labrasol: Tween-80 mixed in 5:3:1:1 ratio. For i.p. administration, the drugs were solubilized in PEG-400 and 1 mM Tris-HCl in a 1:1 (v:v) ratio. Dasatinib (LC Laboratories) was solubilized in 80 mM citric acid (pH 3.1) and was administered at a dose of 10 mg kg^–1 by oral gavage. 2 × 10^5 luciferase expressing p185^BCR-ABL Arf ^−/− pre-B-ALL cells were injected intravenously into C57BL/6 female mice for leukemia induction. […] The mice were observed daily and those that became moribund during the trials, (paralysis of hind limbs, significant body weight loss) were sacrificed immediately.
Mice were anesthetized with 2% isoflurane followed by intraperitoneal injection of 50 μl (50 mg ml^−1) substrate D-luciferin (Sigma, #L9504). The mice were imaged with the IVIS 100 Bioluminescence Imaging scanner 10 min after luciferin administration. All mice were imaged in groups of five with 1-minute exposure time, and the images were acquired at low binning.

p185BCR-ABL Arf–/– cells = experiment: Proliferation assay (CellTiter-Glo, 72 h); type: cell-based; details: Mus musculus
Protocol: as §1

ATR = tested on: ATR; design: method as in earlier work; details: ref #35, Fokas et al., 2014; cited from earlier work
RRM2 pT33 = experiment: Phosphoproteomic nLC-MS/MS analysis of RRM2 phosphorylation; type: cell-based, human; design: key to RNR pT33: ↓: partial decrease/inhibition; ↓↓↓: nearly complete inhibition; ↑: increase; ⟷: no change
Protocol: (§2) against both the Uniprot human FASTA database and a decoy database of the Uniprot human database which read from C-terminus to N-terminus; Percolator was used to filter the data at 1% FDR at both the peptide and […]
(§3) Phosphoproteomic analyses. CCRF-CEM cells were prepared same as the asynchronous CEM cells total protein digests above, except that a total of 7.5 mg total protein from 1 x 10^8 cells was collected per treatment condition for phosphoproteomic analysis. tC18 Sep-Pak cartridges (Waters) were used for peptide desalting and Pierce Quantitative Colorimetric Peptide Assay was performed prior to phosphopeptide enrichment.
Hydrophilic interaction chromatography (HILIC) and immobilized metal affinity chromatography (IMAC) were performed same as previously described4. Data dependent nLC-MS/MS was performed on Thermo QExactive Plus same as above. Raw data was searched against Uniprot human database using MaxQuant 1.5.3.30 with the following search parameters: trypsin cleavage allowing up to 2 missed cleavages, fixed modification of carbamidomethyl to cysteines, variable modifications of acetylation to protein N-terminus, methionine oxidation, and phosphorylation to serine, threonine, and tyrosine, 10 ppm and 20 mmu mass errors for full MS and MS/MS, respectively, score of 40 or greater for modified peptides, and 1% false-discovery rate on peptide and protein identifications. Identified phosphopeptides were manually quantified by area-based extracted ion chromatograms of the monoisotopic peak. […]
Plasma samples were processed the same way as the calibration standard samples. 20 μL samples were injected onto a reverse phase column, (Thermo Scientific Hypersil GOLD column 3.0 µm; 2.1 x 100 mm) equilibrated in water/formic acid, 100/0.1, and eluted (200 μL/min) with an increasing concentration of solvent […]
The effluent from the column was directed to the Agilent Jet Stream ion source connected to the triple quadrupole mass spectrometer (Agilent 6460) operating in the multiple reaction monitoring (MRM) mode using previously optimized settings. The following drug precursor→fragment ion transitions were used: 3-AP

dCK pS74 = experiment: Phosphoproteomic nLC-MS/MS analysis of dCK phosphorylation; type: cell-based, human; design: key to dCK pS74: ↓: partial decrease/inhibition; ↓↓↓: nearly complete inhibition; ↑: increase; ⟷: no change
Protocol: as §2, §3
Hydrophilic interaction chromatography (HILIC) and immobilized metal affinity chromatography (IMAC) were performed same as previously described4. Data dependent nLC-MS/MS was performed on Thermo QExactive Plus same as above. […] Identified phosphopeptides were manually quantified by area-based extracted ion chromatograms of the monoisotopic peak. […]

Jurkat cells = experiment: Cell cycle histograms (propidium iodide flow cytometry); type: cell-based, human; details: dCKi 1 µM, 24 h
Protocol: Cell cycle histograms. Cells were plated at a density of 0.5 x 10^6 cells/mL in respective media or drug treated
media. Following 24 h incubation, cells were harvested and washed twice with PBS twice before staining with
0.5 ml of propidium iodide (Calbiochem, #P3566, 1 µg/mL) solution containing Ribonuclease A and 0.3%
Triton-X 100. The samples were protected from light before acquisition by flow cytometry. […]

[2] = asynchronous CEM, VE-822 1 µM, 12 h
[3] = Suppl. Fig. 5e, BCX-1777 100 nM

SMILES: NC(=S)N/N=C/c1ncccc1N [3-AP]
- IC50 (CEM cells): 1060 nM

SMILES: CNCc1ccc(-c2cc(-c3nc(-c4ccc(S(=O)(=O)C(C)C)cc4)cnc3N)on2)cc1 [VE-822]
- efficacy in vivo of VE-822 alone ([1]; VE-822 40 mg kg–1 once daily): only marginally efficacious
- time by which all treated mice died of leukemia ([1]; after inoculation, VE-822 40 mg kg–1 once daily): ≤ 38 days
- Median survival ([1]; after treatment initiation, 40 mg kg–1 day–1 VE-822, n = 6): 32.5 days
- IC50 (p185BCR-ABL Arf–/– cells): ~300 nM
- cellular selectivity for ATR compared to other members of the PIKK family (including ATM and DNA-PK) (ATR): > 100 fold
- decrease in the phosphorylation of RRM2 on threonine 33 (pT33) (RRM2 pT33; [2]): ~ 50%
- mean fold change of RRM2 pT33 normalized to total RRM2 (RRM2 pT33; [2]): 0.43 ± 0.1 fold
- observed fold decrease for pT33 (phosphoproteomic nLC-MS/MS) (RRM2 pT33; [2]): 0.34 fold
- RNR pT33 (RRM2 pT33; summary Fig. 2g, CEM cells): ↓
- decrease in dCK pS74 (fold) (dCK pS74; VE-822-treated leukemia cells): two-fold
- dCK pS74 (dCK pS74; summary Fig. 2g, CEM cells): ↓

SMILES: COc1ccc(-c2nc([C@@H](C)Sc3nc(N)cc(N)n3)c(C)s2)cc1OCCNS(C)(=O)=O [dCKi]
- cells in G2/M (Jurkat cells; Suppl. Fig. 4e, dCF 10 µM): 17%
- cells in S phase (Jurkat cells; Suppl. Fig. 4e, dCF 10 µM): 30%
- cells in G2/M (Jurkat cells; [3]): 14%
- cells in S phase (Jurkat cells; [3]): 32%
